Test results: patent US11384099B2, “Pyrazolopyridinone compounds” (Janssen Pharmaceutica NV, priority 2017, dated 2022)

Experiments:
[1] = system: NIH/3T3 cells transfected with control vector (MOCK); assay: NIH/3T3 mock cell proliferation assay (CTG, counter assay); type: cell-based; details: Mus musculus, NIH3T3; 72-hr incubation, CellTiter Glo; counter assay for general toxicity
Procedure: NIH/3T3 Mock Cell Proliferation Assay
In day 1, 90 μL of cell suspension (NIH/3T3 cells transfected with the same control vector as in the above two proliferation assays) (total 30,000 cells per well in growth medium (DMEM containing 1% Glutamax, 10% FBS and 1% Pen/Strep)) was seeded in a 96-well plate and then incubated overnight at 37° C. and 5% CO2. In day 2, 10 μL of growth medium containing 10-fold stock solution of testing compound was added into cell cultures (9 dose points with 3× serial dilution, starting with 30 μM, 0.3% DMSO final). After 72-hr incubation at 37° C. and 5% CO2, in day 5 a volume of 50 μL CellTiter Glo (CTG) reagent was added into cell-containing 96-well plate and the plate was incubated at room temperature for 10 minutes before RLUs (relative light unit) were measured on a microplate reader with luminescence detection module. The RLU value was normalized to survival % and concentration-response curve was plotted using Prism to calculate IC50 (M), pIC50 (−log IC50) and HillSlope value.

[2] = molecular target: T1, human FGFR3 wild type enzyme (cytoplasmic domain) (Homo sapiens, UniProt P22607); assay: FGFR3 wild type mobility shift assay (enzymatic assay, Caliper); type: biochemical; details: 75 μM ATP, 50 minutes at 30° C.
T1 construct: human FGFR3 wild type enzyme (cytoplasmic domain, from Cama Biosciences); purchased Carna Biosciences
T1 sequence (P22607 397-806 limits assumed): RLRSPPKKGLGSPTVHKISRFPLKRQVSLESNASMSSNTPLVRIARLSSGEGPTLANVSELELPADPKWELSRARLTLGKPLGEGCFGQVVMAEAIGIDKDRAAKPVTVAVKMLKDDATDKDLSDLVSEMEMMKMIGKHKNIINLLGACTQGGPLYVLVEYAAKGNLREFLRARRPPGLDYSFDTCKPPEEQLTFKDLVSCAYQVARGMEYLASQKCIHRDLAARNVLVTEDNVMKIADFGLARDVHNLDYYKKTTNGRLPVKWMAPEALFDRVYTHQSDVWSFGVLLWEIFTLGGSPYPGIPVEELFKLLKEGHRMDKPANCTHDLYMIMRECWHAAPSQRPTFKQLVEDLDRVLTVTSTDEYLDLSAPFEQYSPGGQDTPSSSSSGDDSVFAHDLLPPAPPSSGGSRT
Procedure: FGFR3 Wild Type Mobility Shift Assay (Enzymatic Assay)
(§1) In a final reaction volume of 25 μL, 0.04 ng/μL human FGFR3 wild type enzyme (cytoplasmic domain, from Cama Biosciences) was incubated with 75 μM ATP, 1 μM FL-peptide 30 substrate and 250 nL of testing compound (1% DMSO final) in assay buffer (100 mM HEPES pH 7.4, 10 mM MgCl2, 0.003% Brij35, 1 mM DTT). After incubation for 50 minutes at 30° C. the reaction was stopped with 10 μL of 0.5M EDTA pH 8.0, and then L of reaction mixture was transferred to reading plate and measured on Caliper EZ reader II.

[3] = molecular target: T2, human FGFR3 V555M enzyme (cytoplasmic domain carrying V555M mutation) (Homo sapiens, UniProt P22607, V555M); assay: FGFR3 V555M mobility shift assay (enzymatic assay, Caliper); type: biochemical; details: 30 μM ATP, 45 minutes at 30° C.
T2 construct: cytoplasmic domain carrying V555M mutation, from Carna Biosciences; purchased Carna Biosciences
T2 sequence (P22607 397-806 V555M limits assumed): as the sequence (P22607 397-806 limits assumed) above, with V159M counted along it
Procedure: FGFR3 V555M Mobility Shift Assay (Enzymatic Assay)
as §1, with “FGFR3 V555M” for “FGFR3 wild type”, “(cytoplasmic domain carrying V555M mutation,” for “(cytoplasmic domain,”, “from Carna” for “from Cama”, “with 30” for “with 75”, “for 45” for “for 50”

IC50 [2]	IC50 [3]	SMILES	IC50 [1]
790 nM	218 nM	COCC(Nc1c(-c2nc3cc(OC)c(OC)cc3[nH]2)c(=O)[nH]c2cn(C)nc12)c1ncccn1 (single isomer, unassigned) [Compound 26, (R*)-6-(5,6-dimethoxy-1H-benzo[d]imidazol-2-yl)-7-((2-methoxy-1-(pyrimidin-2-yl)-ethyl)amino)-2-methyl-2H-pyrazolo[4,3-b]pyridin-5 (4H)-one]	
23.7 nM	4.16 nM	CCn1cc2[nH]c(=O)c(-c3nc4ccc(OC)cc4[nH]3)c(N[C@@H](C)c3cocn3)c2n1 (single isomer, unassigned) [Compound 33, (S*)-2-ethyl-6-(6-methoxy-1H-benzo[d]imidazol-2-yl)-7-((1-(oxazol-4-yl)ethyl)amino)-2H-pyrazolo[4,3-b]125yridine-5 (4H)-one]	
298 nM	80.5 nM	COCCOc1cc2[nH]c(-c3c(NC(c4ncccn4)C(C)C)c4nn(C)cc4[nH]c3=O)nc2cc1OC (single isomer, unassigned) [Compound 35, (R*)-6-(5-methoxy-6-(2-methoxyethoxy)-1H-benzo[d]imidazol-2-yl)-2-methyl-7-((2-methyl-1-(pyrimidin-2-yl)propyl)amino)-2H-pyrazolo[4,3-b]pyridin-5 (4H)-one]	
263 nM	48.6 nM	COc1cnc2nc(-c3c(NC(c4ncccn4)C(C)C)c4nn(C)cc4[nH]c3=O)[nH]c2c1 (single isomer, unassigned) [Compound 39, (R*)-6-(6-methoxy-1H-imidazo[4,5-b]pyridin-2-yl)-2-methyl-7-((2-methyl-1-(pyrimidin-2-yl)propyl)amino)-2,4-dihydro-5H-pyrazolo[4,3-b]pyridin-5-one]	
138 nM	43.2 nM	CCC(Nc1c(-c2nc3cc(OC)c(OC)cc3[nH]2)c(=O)[nH]c2cn(C)nc12)c1ncccn1 (single isomer, unassigned) [Compound 43, (R*)-6-(5,6-dimethoxy-1H-benzo[d]imidazol-2-yl)-2-methyl-7-((1-(pyrimidin-2-yl)-propyl)amino)-2H-pyrazolo[4,3-b]pyridin-5 (4H)-one]	
99.6 nM	23.8 nM	COc1cc2nc(-c3c(NC(c4ncccn4)C4CC4)c4nn(C)cc4[nH]c3=O)[nH]c2cc1OC (single isomer, unassigned) [Compound 47, (R*)-7-((cyclopropyl(pyrimidin-2-yl)methyl)amino)-6-(5,6-dimethoxy-1H-benzo[d]-imidazol-2-yl)-2-methyl-2H-pyrazolo[4,3-b]pyridin-5 (4H)-one]	
150 nM	59.5 nM	CCC(Nc1c(-c2nc3ccc(OCCOC)cc3[nH]2)c(=O)[nH]c2cn(C)nc12)c1ncccn1 (single isomer, unassigned) [Compound 49, (R*)-6-(6-(2-methoxyethoxy)-1H-benzo[d]imidazol-2-yl)-2-methyl-7-((1-(pyrimidin-2-yl)propyl)amino)-2H-pyrazolo[4,3-b]pyridin-5 (4H)-one]	
1240 nM	347 nM	CC[C@@H](Nc1c(-c2nc3cnc(N(C)C)cc3[nH]2)c(=O)[nH]c2cn(C)nc12)c1ncccn1 [Compound 21, (R)-6-(6-(dimethylamino)-1H-imidazo[4,5-c]pyridin-2-yl)-2-methyl-7-((1-(pyrimidin-2-yl)propyl)amino)-2H-pyrazolo[4,3-b]pyridin-5 (4H)-one]	
1.83 nM	0.673 nM	CCn1cc2[nH]c(=O)c(-c3nc4cc(OC)c(OC)cc4[nH]3)c(N[C@@H](C)c3ncccn3)c2n1 [Compound 37, (S)-6-(5,6-dimethoxy-1H-benzo[d]imidazol-2-yl)-2-ethyl-7-((1-(pyrimidin-2-yl)ethyl)-amino)-2H-pyrazolo[4,3-b]pyridin-5 (4H)-one]	

Second part, the molecule before the results:

SMILES	IC50 [2]	IC50 [3]	IC50 [1]
CCn1cc2[nH]c(=O)c(-c3nc4cc(OC)c(OC)cc4[nH]3)c(N[C@@H](C)c3cocn3)c2n1 (single isomer, unassigned) [Compound 5A, (S*)-6-(5,6-Dimethoxy-H-benzo[d]imidazol-2-yl)-2-ethyl-7-((1-(oxazol-4-yl)ethyl)-amino)-2H-pyrazolo[4,3-b]pyridin-5 (4H)-one]			380 nM
CC(C)[C@H](Nc1c(-c2nc3ccc(C(N)=O)cc3[nH]2)c(=O)[nH]c2cn(C)nc12)c1ncccn1 (single isomer, unassigned) [Compound 9, (S*)-2-(2-methyl-7-((2-methyl-1-(pyrimidin-2-yl)propyl)amino)-5-oxo-4,5-dihydro-2H-pyrazolo[4,3-b]pyridin-6-yl)-1H-benzo[d]imidazole-6-carboxamide]			2700 nM
CC(C)[C@H](Nc1c(-c2nc3ccc(C(=O)N(C)C)cc3[nH]2)c(=O)[nH]c2cn(C)nc12)c1ncccn1 (single isomer, unassigned) [Compound 10, (S*)—N,N-dimethyl-2-(2-methyl-7-((2-methyl-1-(pyrimidin-2-yl)propyl)amino)-5-oxo-4,5-dihydro-2H-pyrazolo[4,3-b]pyridin-6-yl)-1H-benzo[d]imidazole-6-carboxamide]			1370 nM
CC(C)[C@H](Nc1c(-c2nc3cnc(N(C)C)cc3[nH]2)c(=O)[nH]c2cn(C)nc12)c1ncccn1 (single isomer, unassigned) [Compound 11, (S*)-6-(6-(dimethylamino)-1H-imidazo[4,5-c]pyridin-2-yl)-2-methyl-7-((2-methyl-1-(pyrimidin-2-yl)propyl)amino)-2H-pyrazolo[4,3-b]pyridin-5 (4H)-one]			1840 nM
COCC(Nc1c(-c2nc3ccc(OC)cc3[nH]2)c(=O)[nH]c2cn(C)nc12)c1ncccn1 (single isomer, unassigned) [Compound 13, (R*)-7-((2-methoxy-1-(pyrimidin-2-yl)ethyl)amino)-6-(6-methoxy-1H-benzo[d]imidazol-2-yl)-2-methyl-2H-pyrazolo[4,3-b]pyridin-5 (4H)-one]	1830 nM	375 nM	
CCC(Nc1c(-c2nc3cnc(N(C)C)cc3[nH]2)c(=O)[nH]c2cn(C)nc12)c1ncccn1 (single isomer, unassigned) [Compound 14, (S*)-6-(6-(dimethylamino)-1H-imidazo[4,5-c]pyridin-2-yl)-2-methyl-7-((1-(pyrimidin-2-yl)propyl)amino)-2H-pyrazolo[4,3-b]pyridin-5 (4H)-one]	71.9 nM	11.8 nM	
COc1ccc2[nH]c(-c3c(NC(c4ncccn4)C(C)C)c4nn(C)cc4[nH]c3=O)nc2c1 (single isomer, unassigned) [Compound 15, (S*)-6-(5-Methoxy-1H-benzo[d]imidazol-2-yl)-2-methyl-7-((2-methyl-1-(pyrimidin-2-yl)-propyl)amino)-2H-pyrazolo[4,3-b]pyridin-5 (4H)-one]			1340 nM
COCC(Nc1c(-c2nc3cnc(OC)cc3[nH]2)c(=O)[nH]c2cn(C)nc12)c1ncccn1 (single isomer, unassigned) [Compound 19, (S*)-7-((2-methoxy-1-(pyrimidin-2-yl)ethyl)amino)-6-(6-methoxy-1H-imidazo[4,5-c]-pyridin-2-yl)-2-methyl-2H-pyrazolo[4,3-b]pyridin-5 (4H)-one]	1240 nM	243 nM	
COCC(Nc1c(-c2nc3cnc(OC)cc3[nH]2)c(=O)[nH]c2cn(C)nc12)c1ncccn1 (single isomer, unassigned) [Compound 20, (R*)-7-((2-methoxy-1-(pyrimidin-2-yl)ethyl)amino)-6-(6-methoxy-1H-imidazo[4,5-c]-pyridin-2-yl)-2-methyl-2H-pyrazolo[4,3-b]pyridin-5 (4H)-one]	22.4 nM	4.67 nM	
CC(C)C(Nc1c(-c2nc3cnccc3[nH]2)c(=O)[nH]c2cn(C)nc12)c1ncccn1 (single isomer, unassigned) [Compound 24, (S*)-6-(1H-imidazo[4,5-c]pyridin-2-yl)-2-methyl-7-((2-methyl-1-(pyrimidin-2-yl)propyl)-amino)-2H-pyrazolo[4,3-b]pyridin-5 (4H)-one]			3010 nM
COC[C@@H](Nc1c(-c2nc3cc(OC)c(OC)cc3[nH]2)c(=O)[nH]c2cn(C)nc12)c1ncccn1 (single isomer, unassigned) [Compound 25, (S*)-6-(5,6-dimethoxy-H-benzo[d]imidazol-2-yl)-7-((2-methoxy-1-(pyrimidin-2-yl)-ethyl)amino)-2-methyl-2H-pyrazolo[4,3-b]pyridin-5 (4H)-one]			4550 nM
